This passage reports cytotoxicity results from ChEMBL document CHEMBL3507680, “University of Dundee, Gates Library screen for HepG2 cell viability”.

A short description of the data set: Human HepG2 cell viability assay in 384 well format. The class given is toxicity, cell-based. Details: dose 125 nL, time 70.5 hour; cytotoxicity at 70.5 h: concentration not given beside the values. To be noted: HepG2 cells, read-out: Inhibition.
Consider `COc1ccc2c(c1)CCCN2C(=O)NCCc1cnn(C)c1`, for which the cytotoxicity at 70.5 h is -11.2%. With `COC(=O)N1CCN(CCCc2nnnn2-c2ccccc2)CC1` the figure was 8.7%; with `CN(CCC(F)(F)F)Cc1nc2ccccc2c(=O)[nH]1`, -3.56%. With `O=C(Nc1ccccc1Oc1cccc(F)c1)C1CCS(=O)(=O)C1` (stereo unspecified) the figure was -5.38%; with `Cc1n[nH]cc1CNCC(c1ccsc1)N(C)C` (stereo unspecified), -7.79%; with `Cn1cc(C(=O)N2C[C@@H]3CN(S(C)(=O)=O)CCO[C@@H]3C2)cn1`, -0.664%. To `CN1Cc2ccccc2CC2(CCN(C(=O)N3CCOCC3)CC2)C1=O` belongs 24.7%; to `CCN1CCNC(=O)C12CCN(C(=O)Cc1ccsc1)CC2`, 2.23%; to `COc1ccc(S(=O)(=O)N2C[C@@H]3CN(C)CCO[C@@H]3C2)cc1`, -4.18%. Take `COCCn1c2c(ccc1=O)CCN(C(=O)CC1CC1)CC2`: the cytotoxicity at 70.5 h is -2.25%. As to `CC(=O)N1CC[C@H]2OCC[C@@H](C(=O)Nc3cccnc3C)[C@@H]2C1`, the cytotoxicity at 70.5 h is -5.24%. For the compound `CC(C)NC(=O)N1CCC2(CC1)Cc1ccccc1CN(C)C2=O`, the cytotoxicity at 70.5 h is -2.79%. With `N#Cc1ccc(C(=O)N2CCc3c(COCC4CC4)cncc3C2)cc1` the figure was -5.21%. With `COCCNC(=O)C[C@@H]1COC[C@H]2CN(C(=O)C3CCOCC3)C[C@@H]12` the figure was 1.49%; with `O=C(c1ccoc1)N1CCO[C@@H]2CNC[C@@H]21`, -1.42%; with `O=C(CC1CC1)N[C@@H]1CN(C(=O)c2ccoc2)C[C@@H]2CCCO[C@@H]21`, -12.7%. To `COc1cc(N2CCC3(CC(=O)N(Cc4csc(C)n4)C3)C2)ncn1` (stereo unspecified) belongs -6.14%; to `Cc1occc1C(=O)N1C[C@@H]2CCCO[C@@H]2[C@H](NC(=O)CC2CC2)C1`, -7.56%. In the case of `CCCNC(=O)c1cc2c(s1)CCN2c1ncccn1`, the cytotoxicity at 70.5 h stood at 3.12%.

In the case of `CN(C)CC(=O)N1Cc2nc(C(=O)N3CCCN(C)CC3)oc2C1`, the cytotoxicity at 70.5 h is -7.8%. To `O=C(CC1CC1)N[C@@H]1CN(C(=O)c2cccs2)C[C@@H]2CCCO[C@@H]21` belongs -7.28%; to `CC(C)C(=O)N1CC[C@H]2N(C)CC[C@@]2(C(=O)Nc2ccccc2)CC1`, -10.2%. With `O=C(C1CCOC1)N1C[C@@H]2CCN(C(=O)c3cscn3)[C@@H]2C1` (stereo partly specified), the cytotoxicity at 70.5 h came out at 14%. For the compound `c1cnc(N2CCc3onc(CN4CCCC4)c3C2)cn1`, the cytotoxicity at 70.5 h came to 6.11%. With `c1cnc(NCc2noc3c2CN(c2cnccn2)CC3)nc1` the figure was -3.45%.

As to `Cc1cc(C(=O)NC2CCc3c(ccc(=O)n3CC(C)C)C2)no1` (stereo unspecified), the cytotoxicity at 70.5 h was -4.48%. To `CN(C)CCN1CCO[C@@H]2CCN(C(=O)c3cccn3C)CC[C@H]21` belongs 10.8%; to `CCS(=O)(=O)N1CCN(CC2CC2)c2ncccc2C1`, -2.09%; to `Cc1cc(C(=O)NC2CCc3c(ccc(=O)n3CCN(C)C)C2)no1` (stereo unspecified), -3.71%.

For `CCN1Cc2ccccc2CC2(CCN(C)CC2)C1=O`, the cytotoxicity at 70.5 h is -7.96%. With `CCN1Cc2ccccc2CC2(CCN(C(=O)N(C)C)CC2)C1=O` the figure was -5.37%. To `Cc1ccc(C(CNCc2c[nH]nc2C)N(C)C)cc1` (stereo unspecified) belongs 11.2%; to `CCc1ccc(CN2C[C@H](OCC(=O)N(C)C)[C@H]3COC[C@H]32)o1`, -0.34%. Take `O=C1CCCN1Cc1nnc2n1CCCN(Cc1ccco1)C2`: the cytotoxicity at 70.5 h is -0.266%. Turning to `CCc1ccc(CN2C[C@H](OC)[C@H]3COC[C@H]32)o1`, the cytotoxicity at 70.5 h was -0.659%. With `CCS(=O)(=O)N1Cc2[nH]nc(COCc3cccnc3)c2C1` the figure was -2.23%. To `O=C(c1cscn1)N1CC[C@@H]2[C@@H]1CCN2C1CCOC1` (stereo partly specified) belongs -1.49%; to `CO[C@H]1CCN(Cc2ccoc2)C[C@@H]1Cc1ccccc1`, 20.5%; to `CO[C@@H]1CCN(Cc2ccoc2)C[C@@H]1Cc1ccccc1`, 1.1%. On to `COc1ccc(C[C@H]2CN(Cc3ccoc3)CC[C@@H]2OC)cc1`, for which the cytotoxicity at 70.5 h was -2.46%. With `COCCNC(=O)C[C@@H]1COC[C@H]2CN(CC3CCOCC3)C[C@@H]12` the figure was 1.35%. To `Cc1noc(C)c1C(=O)N1Cc2ncn(C)c2C(COCC(C)C)C1` (stereo unspecified) belongs -7%. With `COCc1cncc2c1CCN(C(=O)c1cccc(C#N)c1)C2` the figure was -8.16%; with `COCc1cncc2c1CCN(C(=O)c1ccc(C#N)cc1)C2`, -10.3%; with `COc1cc(N2C[C@H]3CN(Cc4ccccn4)C[C@H]3C2)ncn1`, -4.15%. Take `O=C(c1ccco1)N1CCO[C@@H]2CN(Cc3nccs3)CC[C@@H]2C1`: the cytotoxicity at 70.5 h is -6.2%. With `CC(C)COCC1CN(C(=O)c2cscn2)Cc2ncn(C)c21` (stereo unspecified) the figure was -6.45%; with `COC(=O)CCC(=O)N1CCCC2(CCCN2Cc2cccc(F)c2)C1` (stereo unspecified), -6.42%; with `Cc1noc(C)c1C(=O)N1Cc2ncn(C)c2C(COCC2CC2)C1` (stereo unspecified), -7.58%. To `CCn1nnc2c1C(COCC(=O)N(C)C)CN(Cc1ccco1)C2` (stereo unspecified) belongs 10.6%; to `Cc1nc(COCC2CN(C(N)=O)Cc3nccn3C2)cs1` (stereo unspecified), -5.1%; to `Cc1nc(COCC2CN(C(=O)N(C)C)Cc3nccn3C2)cs1` (stereo unspecified), -5.94%. To `CC(C)N1CCO[C@@H]2CN(S(=O)(=O)c3cccs3)CC[C@@H]2C1` belongs -7.93%; to `Fc1cnc(N2CCN3C[C@H](Oc4cncnc4)C[C@H]3C2)nc1`, 5.05%; to `CC(C)CN1CCC(N2CCC(C(=O)N(C)C)CC2)CC1`, 3.98%. Take `CN1CCO[C@@H]2CN(S(=O)(=O)c3cccnc3)C[C@@H]2C1`: the cytotoxicity at 70.5 h stood at 2.04%. Turning to `Cc1ccc(O[C@@H]2C[C@H]3CN(c4ncc(F)cn4)CCN3C2)cc1`, the cytotoxicity at 70.5 h is -0.913%. To `Cc1cccc(CNC2CC3(CCN(CCO)CC3)c3ccccc32)n1` (stereo unspecified) belongs 2.24%. To `Cc1noc(C)c1CN1CCC2(CCN(Cc3cccc(F)c3)CC2)C1` belongs -9.09%. With `Cc1ccc(CNC2CC3(CCN(CCO)CC3)c3ccccc32)s1` (stereo unspecified) the figure was 4.93%. Consider `CS(=O)(=O)N1CCO[C@@H]2CCN(Cc3ccncc3)CC[C@H]21`, for which the cytotoxicity at 70.5 h is -6.06%.

`CN(C)C(=O)COCc1cncc2c1CCN(C1CCOCC1)C2`: the cytotoxicity at 70.5 h is -7.93%.

Take `CN(C)C1CCC2(CCN(Cc3nccn3C)CC2)c2ccccc21` (stereo unspecified): the cytotoxicity at 70.5 h was -4.41%. With `CCN1Cc2nccn2CC(COCc2csc(C)n2)C1` (stereo unspecified) the figure was -3.32%; with `Fc1cnc(N2CCN3C[C@H](Oc4cccnc4)C[C@H]3C2)nc1`, -3.94%; with `Cc1ccc(CN2CC[C@@H]3OCCN(Cc4ccncc4)[C@H]3CC2)s1`, -6.32%.
